Results from patent publication US6653110B2 (Ajinomoto Co., Inc., priority 2001, dated 2003).

System: Enterobacter agglomerans AJ13601 strain
Assay: Growth inhibition by organic acid at acidic pH (main culture in jar fermenter)
Format: cell-based
Conditions: for Growth inhibition: organic acid 0.5 g/L in main culture medium, pH 4.5, 34° C.
Experimental: Therefore, an experiment concerning the growth inhibition by an organic acid was performed at an acidic pH.
The Enterobacter agglomerans AJ13601 strain was cultured on LBG agar medium (10 g/L of trypton, 5 g/L of yeast extract, 10 g/L of NaCl and 15 g/L of agar) containing 25 mg/L of tetracycline hydrochloride and 25 mg/L of chloramphenicol at 30° C. for 14 hours, and one platinum loop of the cells were taken and inoculated into 300 mL of a seed culture medium having the following composition in a 1 L-volume jar fermenter to perform seed culture at 34° C. at pH 6.0.
50 g/L of sucrose, 0.4 g/L of magnesium sulfate heptahydrate, 4.0 g/L of ammonium sulfate, 2.0 g/L of monopotassium dihydrogenphosphate, 4.0 g/L of yeast extract, 0.01 g/L of ferrous sulfate heptahydrate, 0.01 g/L manganese sulfate pentahydrate, 0.4 g/L of L-lysine hydrochloride, 0.4 g/L of DL-methionine, 0.4 g/L of DL-α,ε-diaminopimelic acid, 25 mg/L of tetracycline hydrochloride and 25 mg/L of chloramphenicol
pH was controlled by adding ammonia gas during the culture. The seed culture was terminated by observing depletion of the saccharide in the seed culture medium as a marker, and the seed culture broth was inoculated into 300 mL of a main culture medium contained in 1 L-volume jar fermenters in an amount of 20% of the volume of the main culture medium to perform the main culture. The composition of the main culture medium is shown below. When an experiment for the growth inhibition by an organic acid is performed, the experiment was performed by adding the organic acid at a predetermined concentration.
20 g/L of glucose, 0.4 g/L of magnesium sulfate heptahydrate, 5.0 g/L of ammonium sulfate, 6.0 g/L of monopotassium dihydrogenphosphate, 1.5 g/L of sodium chloride, 0.01 g/L of ferrous sulfate heptahydrate, 0.01 g/L of manganese sulfate pentahydrate, 0.8 g/L of L-lysine hydrochloride, 0.6 g/L of DL-methionine, 0.6 g/L of DL-α,ε-diaminopimelic acid, 25 mg/L of tetracycline hydrochloride, 25 mg/L of chloramphenicol, 6.0 g/L of yeast extract and 0.75 g/L of calcium chloride dihydrate
The culture temperature was adjusted to 34° C., and pH was controlled to a predetermined pH by adding ammonia gas.
Experiments for the growth inhibition effect at an acidic pH (pH 4.5) were first performed with various organic acids.

With CC(=O)O [Acetic acid] the Growth inhibition was “Observed” and the Growth inhibition (listed as acetic acid) was “evident growth inhibition”.
For O=CO [Formic acid], the growth of cells (formic acid 0.5 g/L, pH 4.5 (FIG. 11)) was “hardly observed”, the “pH region in which growth inhibition by formic acid was not observed” value (formic acid concentration 0.5 g/L, inhibition observed at lower pH (FIG. 11)) was at least 5.5 and the Growth inhibition was “Observed”. The Growth inhibition (listed as formic acid) was “evident growth inhibition” and the “formic acid concentration in the medium at which growth inhibition was not observed” value (pH 4.5 (FIG. 12)) was at most 0.20 g/L.
In the case of CC(O)C(=O)O (stereo not drawn) [Lactic acid], the Growth inhibition is reported as “Not observed” and the Growth inhibition (listed as lactic acid) is reported as “growth rate comparable to that obtained with the control medium”.
For CCC(=O)O [Propionic acid], the Growth inhibition was “Observed” and the Growth inhibition (listed as propionic acid) was “evident growth inhibition”.
For O=C(O)CCC(=O)O [Succinic acid], the Growth inhibition was “Not observed” and the Growth inhibition (listed as succinic acid) was “did not show growth inhibition”.
With O=C(O)/C=C/C(=O)O [fumaric acid] the Growth inhibition was “did not show growth inhibition”.
With O=C(O)CC(O)C(=O)O (stereo not drawn) [malic acid] the Growth inhibition was “did not show growth inhibition”.
